Experimental data published in patent publication US6552080B1, “Fungicidal compounds having a fluorovinyl-or fluoropropenyl-oxyphenyloxime moiety and process for the preparation thereof” (Korea Research Institute of Chemical Technology, priority 1999, dated 2003).
Where two headings read alike, the source gives them in different places.

Legend:
Rhizoctonia solani AG-1 = experiment: Fungicidal activity against Rice Sheath Blight (RSB) disease
Puccinia recondita = experiment: Fungicidal activity against Wheat Leaf Rust (WLR) disease; assay type: in vivo
Phytophthora infestans = assay type: in vivo
Botrytis cinerae = experiment: Fungicidal activity against Cucumber Gray Mold Rot (CGM) disease; assay type: in vivo
[1] = tested on: Pyricularia oryzae Carvara KA301; assay type: in vivo
Erysiphae graminis = experiment: Fungicidal activity against Barley Powdery Mildew (BPM) disease; assay type: in vivo

Row | SMILES | Fungicidal Activities RSB (C.V.) (Rhizoctonia solani AG-1; 2 ppm) [%] | Fungicidal Activities RSB (C.V.) (Rhizoctonia solani AG-1; 50 ppm) [%] | Fungicidal Activities WLR (C.V.) (Puccinia recondita; 2 ppm) [%] | Fungicidal Activities WLR (C.V.) (Puccinia recondita; 50 ppm) [%] | Fungicidal Activities TLB (C.V.) (Phytophthora infestans; 2 ppm) [%] | Fungicidal Activities TLB (C.V.) (Phytophthora infestans; 50 ppm) [%] | Fungicidal Activities CGM (C.V.) (Botrytis cinerae; 50 ppm) [%] | Fungicidal Activities RCV (C.V.) ([1]; 2 ppm) [%] | Fungicidal Activities RCV (C.V.) ([1]; 50 ppm) [%] | Fungicidal Activities BPM (C.V.) (Erysiphae graminis; 2 ppm) [%] | Fungicidal Activities BPM (C.V.) (Erysiphae graminis; 50 ppm) [%] | other results
1 | CNC(=O)C(=NOC)c1ccccc1CON=C(C)c1cccc(OC(F)=C(c2ccc(C)c(C)c2)C(F)(F)F)c1 [Compound 193] | 30 | 80 | 98 | 100 | 12 | 40 | 75 | 93 | 96 | 90 | 100 | –
2 | CNC(=O)C(=NOC)c1ccccc1CON=C(C)c1cccc(OC(F)=C(c2cc(C)cc(C)c2)C(F)(F)F)c1 [Compound 194] | – | 64 | 20 | 98 | – | 0 | 16 | 95 | 100 | 0 | 98 | –
3 | CCc1ccc(C(=C(F)Oc2cccc(C(C)=NOCc3ccccc3C(=NOC)C(=O)NC)c2)C(F)(F)F)cc1 [Compound 195] | 25 | 80 | 98 | 100 | 25 | 50 | 82 | 100 | 96 | 99 | 100 | –
4 | CNC(=O)C(=NOC)c1ccccc1CON=C(C)c1cccc(OC(F)=C(c2cccc(OC)c2)C(F)(F)F)c1 [Compound 197] | 35 | 80 | 98 | 100 | 0 | 50 | 85 | 100 | 100 | 100 | 100 | –
5 | CNC(=O)C(=NOC)c1ccccc1CON=C(C)c1cccc(OC(F)=C(c2ccc(OC)cc2)C(F)(F)F)c1 [Compound 198] | – | 58 | 53 | 100 | – | 0 | 16 | 95 | 100 | 41 | 100 | –
6 | CNC(=O)C(=NOC)c1ccccc1CON=C(C)c1cccc(OC(F)=C(c2ccc(F)cc2)C(F)(F)F)c1 [Compound 199] | 35 | 100 | 99 | 100 | 12 | 60 | 80 | 100 | 100 | 100 | 100 | –
7 | CNC(=O)C(=NOC)c1ccccc1CON=C(C)c1cccc(OC(F)=C(c2cccc(C(F)(F)F)c2)C(F)(F)F)c1 [Compound 200] | 15 | 85 | 93 | 100 | 12 | 50 | 81 | 95 | 96 | 99 | 100 | –
8 | CNC(=O)C(=NOC)c1ccccc1CON=C(C)c1cccc(OC(F)=C(c2cccc(Cl)c2)C(F)(F)F)c1 [Compound 201] | 20 | 85 | 97 | 100 | 25 | 50 | 85 | 98 | 97 | 100 | 100 | –
9 | CON=C(C(=O)OC)c1ccccc1CON=C(c1cccc(OC(F)=C(c2ccccc2)C(F)(F)F)c1)C(F)(F)F [Compound 221] | – | 30 | – | 100 | – | 0 | 0 | – | 41 | – | 100 | Fungicidal Activities WLR (C.V.) (Puccinia recondita; 10 ppm): 91%; Fungicidal Activities BPM (C.V.) (Erysiphae graminis; 10 ppm): 96%
10 | OC(c1ccc(Cl)cc1)(c1cncnc1)c1ccccc1Cl (centres unmarked) [FENARIMOL, reference compound] | 40 | – | 80 | – | 75 | – | – | 0 | – | 100 | – | Fungicidal Activities RSB (C.V.) (Rhizoctonia solani AG-1; 0.08 ppm): 14%; Fungicidal Activities RSB (C.V.) (Rhizoctonia solani AG-1; 0.40 ppm): 30%; Fungicidal Activities RSB (C.V.) (Rhizoctonia solani AG-1; 10 ppm): 85%; Fungicidal Activities WLR (C.V.) (Puccinia recondita; 0.08 ppm): 15%; Fungicidal Activities WLR (C.V.) (Puccinia recondita; 0.40 ppm): 15%; Fungicidal Activities WLR (C.V.) (Puccinia recondita; 10 ppm): 100%; Fungicidal Activities TLB (C.V.) (Phytophthora infestans; 0.08 ppm): 0%; Fungicidal Activities TLB (C.V.) (Phytophthora infestans; 0.40 ppm): 60%; Fungicidal Activities TLB (C.V.) (Phytophthora infestans; 10 ppm): 80%; Fungicidal Activities CGM (C.V.) (Botrytis cinerae; 0.08 ppm): 0%; Fungicidal Activities CGM (C.V.) (Botrytis cinerae; 0.40 ppm): 7%; Fungicidal Activities CGM (C.V.) (Botrytis cinerae; 2 ppm): 7%; Fungicidal Activities CGM (C.V.) (Botrytis cinerae; 10 ppm): 7%; Fungicidal Activities RCV (C.V.) ([1]; 0.08 ppm): 0%; Fungicidal Activities RCV (C.V.) ([1]; 0.40 ppm): 0%; Fungicidal Activities RCV (C.V.) ([1]; 10 ppm): 0%; Fungicidal Activities BPM (C.V.) (Erysiphae graminis; 0.08 ppm): 50%; Fungicidal Activities BPM (C.V.) (Erysiphae graminis; 0.40 ppm): 95%; Fungicidal Activities BPM (C.V.) (Erysiphae graminis; 10 ppm): 100%
